Assay results as given in PubChem BioAssay (NCI).
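Five compound concentrations were applied to cells in 96-well plates for 48 hours; endpoints were derived by simple linear interpolation of the resulting dose-response curve. GI50 = concentration required for 50% inhibition of growth. TGI: total growth inhibition.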

How the values were obtained:
Experiment in all cases: NCI anticancer screen, dose series, 48 h; in the data active = GI50 below about 0.43 µM; inactive = the rest
786-0 renal = tested on: 786-0 renal
A498 renal = tested on: A498 renal
A549 NSCLC = tested on: A549 NSCLC
ACHN renal = tested on: ACHN renal
BT-549 breast = tested on: BT-549 breast
CAKI-1 renal = tested on: CAKI-1 renal
CCRF-CEM leukemia = tested on: CCRF-CEM leukemia
COLO 205 colon = tested on: COLO 205 colon
EKVX NSCLC = tested on: EKVX NSCLC
HCC-2998 colon = tested on: HCC-2998 colon
HCT-116 colon = tested on: HCT-116 colon
HCT-15 colon = tested on: HCT-15 colon
HOP-62 NSCLC = tested on: HOP-62 NSCLC
HOP-92 NSCLC = tested on: HOP-92 NSCLC
HS 578T breast = tested on: HS 578T breast
IGROV1 ovarian = tested on: IGROV1 ovarian
KM12 colon = tested on: KM12 colon
LOX IMVI melanoma = tested on: LOX IMVI melanoma
M14 melanoma = tested on: M14 melanoma
MALME-3M melanoma = tested on: MALME-3M melanoma
MCF7 breast = tested on: MCF7 breast
MDA-MB-231 breast = tested on: MDA-MB-231 breast
MDA-MB-435 = tested on: MDA-MB-435
MOLT-4 leukemia = tested on: MOLT-4 leukemia
NCI-H226 lung = tested on: NCI-H226 lung
NCI-H23 lung = tested on: NCI-H23 lung
NCI-H460 lung = tested on: NCI-H460 lung
NCI-H522 lung = tested on: NCI-H522 lung
NCI/ADR-RES ovarian = tested on: NCI/ADR-RES ovarian
OVCAR-3 ovarian = tested on: OVCAR-3 ovarian
OVCAR-4 ovarian = tested on: OVCAR-4 ovarian
OVCAR-5 ovarian = tested on: OVCAR-5 ovarian
OVCAR-8 ovarian = tested on: OVCAR-8 ovarian
PC-3 prostate = tested on: PC-3 prostate
RPMI-8226 leukemia = tested on: RPMI-8226 leukemia
RXF 393 renal = tested on: RXF 393 renal
SF-268 CNS = tested on: SF-268 CNS
SF-295 CNS = tested on: SF-295 CNS
SK-MEL-2 melanoma = tested on: SK-MEL-2 melanoma
SK-MEL-28 melanoma = tested on: SK-MEL-28 melanoma
SK-MEL-5 melanoma = tested on: SK-MEL-5 melanoma
SN12C renal = tested on: SN12C renal
SNB-19 CNS = tested on: SNB-19 CNS
SNB-75 CNS = tested on: SNB-75 CNS
SW-620 colon = tested on: SW-620 colon
T-47D breast = tested on: T-47D breast
TK-10 renal = tested on: TK-10 renal
UACC-257 melanoma = tested on: UACC-257 melanoma
UO-31 renal = tested on: UO-31 renal
DU-145 prostate = tested on: DU-145 prostate
HL-60(TB) leukemia = tested on: HL-60(TB) leukemia
HT29 colon = tested on: HT29 colon
K-562 leukemia = tested on: K-562 leukemia
SF-539 CNS = tested on: SF-539 CNS
SK-OV-3 ovarian = tested on: SK-OV-3 ovarian
SR leukemia = tested on: SR leukemia
U251 CNS = tested on: U251 CNS
UACC-62 melanoma = tested on: UACC-62 melanoma

CCCCCCCCCC[C@@H](O)[C@H]1CC[C@@H]([C@H]2CC[C@H]([C@H](O)CCCCCCCCCC[C@@H]3CC(CC(C)=O)C(=O)O3)O2)O1 (some centres not stated)
34.6 µM: TGI (UO-31 renal)
72.2 µM: TGI (HOP-62 NSCLC)
> 100 µM: TGI (786-0 renal) | TGI (A549 NSCLC) | TGI (CAKI-1 renal) | TGI (CCRF-CEM leukemia) | TGI (EKVX NSCLC) | TGI (HCT-116 colon) | TGI (HCT-15 colon) | TGI (IGROV1 ovarian) | TGI (KM12 colon) | TGI (MCF7 breast) | TGI (MDA-MB-231 breast) | TGI (MDA-MB-435) | TGI (NCI-H23 lung) | TGI (NCI-H460 lung) | TGI (OVCAR-5 ovarian) | TGI (OVCAR-8 ovarian) | TGI (SF-268 CNS) | TGI (SF-295 CNS) | TGI (SK-MEL-28 melanoma) | TGI (SNB-19 CNS) | TGI (SW-620 colon) | TGI (TK-10 renal)
97 µM: TGI (A498 renal)
inactive: GI50 (A549 NSCLC) 14.3 µM | GI50 (ACHN renal) 14.6 µM | GI50 (BT-549 breast) 23.7 µM | GI50 (COLO 205 colon) 15.6 µM | GI50 (EKVX NSCLC) 19.2 µM | GI50 (HCT-15 colon) 20.9 µM | GI50 (HOP-62 NSCLC) 19.1 µM | GI50 (KM12 colon) 24.2 µM | GI50 (M14 melanoma) 20 µM | GI50 (MCF7 breast) 19.8 µM | GI50 (MDA-MB-231 breast) 22.8 µM | GI50 (MOLT-4 leukemia) 6.72 µM | GI50 (NCI-H226 lung) 19.6 µM | GI50 (NCI-H23 lung) 0.754 µM | GI50 (NCI/ADR-RES ovarian) 11.9 µM | GI50 (OVCAR-3 ovarian) 18.1 µM | GI50 (OVCAR-8 ovarian) 22.7 µM | GI50 (PC-3 prostate) 25.4 µM | GI50 (RPMI-8226 leukemia) 5.03 µM | GI50 (SF-268 CNS) 27.4 µM | GI50 (SF-295 CNS) 0.483 µM | GI50 (SK-MEL-2 melanoma) 21.5 µM | GI50 (SK-MEL-28 melanoma) 29 µM | GI50 (SN12C renal) 26.7 µM | GI50 (SNB-19 CNS) 18.3 µM | GI50 (SNB-75 CNS) 72 µM | GI50 (SW-620 colon) 37.2 µM | GI50 (T-47D breast) 2.99 µM | GI50 (TK-10 renal) 26.9 µM | GI50 (UACC-257 melanoma) 3.23 µM | GI50 (UO-31 renal) 15.2 µM
32.2 µM: TGI (COLO 205 colon)
50.4 µM: TGI (M14 melanoma)
27.3 µM: TGI (LOX IMVI melanoma)
16.2 µM: TGI (SK-MEL-5 melanoma)
active: GI50 (HCT-116 colon) 0.218 µM | GI50 (LOX IMVI melanoma) 0.152 µM | GI50 (NCI-H460 lung) 0.0647 µM
3.78 µM: TGI (HS 578T breast)
24.8 µM: TGI (RXF 393 renal)
85.5 µM: TGI (OVCAR-4 ovarian)
69.4 µM: TGI (T-47D breast)
26.2 µM: TGI (RPMI-8226 leukemia)
59.9 µM: TGI (SK-MEL-2 melanoma)
40.6 µM: TGI (MOLT-4 leukemia)
37.1 µM: TGI (NCI-H522 lung)
99.4 µM: TGI (PC-3 prostate)
66.3 µM: TGI (UACC-257 melanoma)
37.5 µM: TGI (MALME-3M melanoma)
62.5 µM: TGI (HCC-2998 colon)
63.4 µM: TGI (HOP-92 NSCLC)
39.4 µM: TGI (OVCAR-3 ovarian)

C[C@@H]1CC[C@H]2C(CN3CCN(CC4=C(C(F)(F)F)O[C@@H]5O[C@@]6(C)CC[C@H]7[C@H](C)CC[C@@H]4[C@@]57OO6)CC3)=C(C(F)(F)F)O[C@@H]3O[C@@]4(C)CC[C@@H]1[C@]32OO4
> 35.9 µM: TGI (HCT-116 colon)
> 37.3 µM: TGI (786-0 renal)
> 47.3 µM: TGI (HS 578T breast)
> 27.2 µM: TGI (ACHN renal)
> 27.7 µM: TGI (MDA-MB-231 breast)
> 29.4 µM: TGI (SNB-75 CNS)
> 26.6 µM: TGI (KM12 colon)
> 24.9 µM: TGI (OVCAR-3 ovarian)
> 100 µM: TGI (A549 NSCLC) | TGI (BT-549 breast) | TGI (CCRF-CEM leukemia) | TGI (DU-145 prostate) | TGI (EKVX NSCLC) | TGI (HCC-2998 colon) | TGI (HOP-92 NSCLC) | TGI (HT29 colon) | TGI (IGROV1 ovarian) | TGI (K-562 leukemia) | TGI (LOX IMVI melanoma) | TGI (M14 melanoma) | TGI (MCF7 breast) | TGI (MDA-MB-435) | TGI (MOLT-4 leukemia) | TGI (NCI-H226 lung) | TGI (NCI-H23 lung) | TGI (NCI-H460 lung) | TGI (NCI/ADR-RES ovarian) | TGI (OVCAR-4 ovarian) | TGI (OVCAR-5 ovarian) | TGI (OVCAR-8 ovarian) | TGI (PC-3 prostate) | TGI (SF-268 CNS) | TGI (SF-295 CNS) | TGI (SF-539 CNS) | TGI (SK-MEL-2 melanoma) | TGI (SK-MEL-28 melanoma) | TGI (SK-MEL-5 melanoma) | TGI (SK-OV-3 ovarian) | TGI (SN12C renal) | TGI (SNB-19 CNS) | TGI (SR leukemia) | TGI (SW-620 colon) | TGI (T-47D breast) | TGI (UACC-62 melanoma)
> 31.5 µM: TGI (UACC-257 melanoma)
> 37.2 µM: TGI (HCT-15 colon)
99.7 µM: TGI (TK-10 renal)
> 54.3 µM: TGI (RXF 393 renal)
> 39.9 µM: TGI (U251 CNS)
85.8 µM: TGI (UO-31 renal)
> 46.9 µM: TGI (HOP-62 NSCLC)
inactive: GI50 (786-0 renal) 1.8 µM | GI50 (A549 NSCLC) 3.31 µM | GI50 (ACHN renal) 2.61 µM | GI50 (BT-549 breast) 2.53 µM | GI50 (CAKI-1 renal) 3.16 µM | GI50 (CCRF-CEM leukemia) 0.605 µM | GI50 (COLO 205 colon) 0.996 µM | GI50 (DU-145 prostate) 16.9 µM | GI50 (EKVX NSCLC) 3.14 µM | GI50 (HCC-2998 colon) 10.5 µM | GI50 (HCT-15 colon) 1.79 µM | GI50 (HOP-92 NSCLC) 5.15 µM | GI50 (HS 578T breast) 1.75 µM | GI50 (HT29 colon) 1.42 µM | GI50 (IGROV1 ovarian) > 27.4 µM | GI50 (K-562 leukemia) 1.09 µM | GI50 (KM12 colon) 0.944 µM | GI50 (LOX IMVI melanoma) 2.3 µM | GI50 (M14 melanoma) 5.74 µM | GI50 (MALME-3M melanoma) 2.23 µM | GI50 (MCF7 breast) 3.13 µM | GI50 (MDA-MB-231 breast) 7.85 µM | GI50 (MDA-MB-435) 1.09 µM | GI50 (MOLT-4 leukemia) 5.35 µM | GI50 (NCI-H226 lung) 2.81 µM | GI50 (NCI-H23 lung) 2.07 µM | GI50 (NCI-H460 lung) 3.14 µM | GI50 (NCI-H522 lung) 2.78 µM | GI50 (NCI/ADR-RES ovarian) > 100 µM | GI50 (OVCAR-3 ovarian) 1.84 µM | GI50 (OVCAR-4 ovarian) 3.17 µM | GI50 (OVCAR-5 ovarian) 1.45 µM | GI50 (OVCAR-8 ovarian) 2.29 µM | GI50 (RPMI-8226 leukemia) 0.43 µM | GI50 (RXF 393 renal) 1.05 µM | GI50 (SF-268 CNS) 4.24 µM | GI50 (SF-295 CNS) 5.01 µM | GI50 (SF-539 CNS) 0.567 µM | GI50 (SK-MEL-2 melanoma) 10.6 µM | GI50 (SK-MEL-28 melanoma) 9.96 µM | GI50 (SK-MEL-5 melanoma) 2.96 µM | GI50 (SK-OV-3 ovarian) > 100 µM | GI50 (SN12C renal) 3.85 µM | GI50 (SNB-19 CNS) 7.75 µM | GI50 (SNB-75 CNS) 1.74 µM | GI50 (SR leukemia) 1.89 µM | GI50 (SW-620 colon) 1.12 µM | GI50 (T-47D breast) 0.458 µM | GI50 (TK-10 renal) 4.2 µM | GI50 (U251 CNS) 0.653 µM | GI50 (UACC-257 melanoma) 1.95 µM | GI50 (UACC-62 melanoma) 6.35 µM | GI50 (UO-31 renal) 2.67 µM
active: GI50 (HCT-116 colon) 0.262 µM | GI50 (HL-60(TB) leukemia) 0.382 µM | GI50 (PC-3 prostate) 0.351 µM
> 33.5 µM: TGI (CAKI-1 renal)
> 25.8 µM: TGI (MALME-3M melanoma)
> 27 µM: TGI (NCI-H522 lung)
